Experimental data from article PMC5507300, “Antibacterial small molecules targeting the conserved TOPRIM domain of DNA gyrase” (PLoS ONE, 2017).
≈ marks a conversion by molar mass, not a printed value. Like-named read-outs stand apart in the source and are kept apart here.

Key:
Assay type in all cases: cell-based
[1] = tested on: P. aeruginosa(effluxΔ) MB5890; assay: microbe, parasite or virus in culture; settings: Pseudomonas aeruginosa
Excerpt: (§1) E. coli HS151 (ΔtolC) has been described previously. […] E. coli BW25113 and the Keio gene deletion collection based on BW25113 [25] were obtained from Thermo Fisher Scientific (Waltham, MA) and described in [26]. The plasmid-borne FQ resistance determinant, qnrVC3 [27], was kindly provided by D. Hooper (Massachusetts General Hospital). […] MB2884 (E. coli) and CL15245 (K. pneumoniae) are clinical isolates from the Merck & Co., Inc., Kenilworth, NJ, USA, strain collection. S. aureus COL is a methicillin-resistant clinical isolate.
(§2) Compound doubling dilutions were prepared in 100% DMSO (Sigma Aldrich) and 2 μL of each dilution was transferred to a 96-well plate with lid (Thermo Scientific). Inoculum for all MIC testing was prepared using the BBL Prompt Inoculation System (Becton Dickinson, Franklin Lakes, NJ USA) as described by the manufacturer to produce a suspension of cells at approximately 1.5 x 10^8 colony forming units (CFU)/mL [34–36] and a further dilution (1:1000) was made into cation adjusted Mueller-Hinton broth (CAMH broth, Becton-Dickinson). One hundred μL of this inoculum were then transferred to each well of the 96-well plate containing diluted compound (above). Plates were covered and incubated overnight (18 hrs.) at 37°C.

E. coli HS151 (ΔtolC) = assay: microbe, parasite or virus in culture; settings: Escherichia coli
Excerpt: as §1, §2

[2] = tested on: P. aeruginosa MB5919 (PAO1); assay: Broth microdilution MIC, P. aeruginosa MB5919; settings: Pseudomonas aeruginosa, Table 1, MB5919 P. aeruginosa, read-out: MIC
Excerpt: as §1, §2

[3] = tested on: E. coli GYR102 GyrB E466EV; assay: microbe, parasite or virus in culture; settings: Escherichia coli
Excerpt: as §1, §2
(§3) After the agar solidified, 5 μL of a saturated bacterial culture, grown in CAMH broth, were dispensed on the agar surface and allowed to dry at room temperature. […] After the surface dried at room temperature the plate was incubated at 37°C overnight. […] Genomic DNA from the parent strain (E. coli HS151) and purified (restreaked) resistant isolates was obtained with a GeneJET genomic DNA purification kit according to the manufacturer’s instructions (Fisher Scientific). Assembled whole genome mutant sequences were then compared to the parent strain and polymorphisms were identified as described.

[4] = tested on: E. coli GYR104 GyrB L470I; assay: microbe, parasite or virus in culture; settings: Escherichia coli
Excerpt: as §1, §2, §3

[5] = tested on: E. coli GYR107 GyrB F513L/L422V; assay: microbe, parasite or virus in culture; settings: Escherichia coli
Excerpt: as §1, §2, §3

[6] = tested on: E. coli GYR101 GyrB F513L; assay: microbe, parasite or virus in culture; settings: Escherichia coli
Excerpt: as §1, §2, §3

[7] = tested on: E. coli GYR106 GyrB F513L/A468V; assay: microbe, parasite or virus in culture; settings: Escherichia coli
Excerpt: as §1, §2, §3

[8] = tested on: E. coli GYR105 GyrB T469K; assay: microbe, parasite or virus in culture; settings: Escherichia coli
Excerpt: as §1, §2, §3

[9] = tested on: E. coli GYR108 GyrB L470I/V467L; assay: microbe, parasite or virus in culture; settings: Escherichia coli
Excerpt: as §1, §2, §3

E. coli HS151 (qnrVC) = assay: Broth microdilution MIC, E. coli HS151 (qnrVC); settings: Escherichia coli
Excerpt: (§4) E. coli HS151 (ΔtolC) has been described previously. Gyrase inhibitor-resistant isolates (GYR101-108) were derived by selection for spontaneous resistance to MRL-770 or MRL-423 (Fig 1) in E. coli HS151 as described below. E. coli BW25113 and the Keio gene deletion collection based on BW25113 [25] were obtained from Thermo Fisher Scientific (Waltham, MA) and described in [26]. The plasmid-borne FQ resistance determinant, qnrVC3 [27], was kindly provided by D. Hooper (Massachusetts General Hospital). MB9796 (A. baumannii) is a derivative of MB9797 (ATCC19606) lacking lipopolysaccharide. The efflux-defective P. aeruginosa strain MB5890 (CB398) is a derivative of MB5919 (PAO1). MB2884 (E. coli) and CL15245 (K. pneumoniae) are clinical isolates from the Merck & Co., Inc., Kenilworth, NJ, USA, strain collection. S. aureus COL is a methicillin-resistant clinical isolate.
as §2

[10] = tested on: E. coli BW25113 ΔtolC/ΔyacG; assay: Broth microdilution MIC, E. coli BW25113 ΔtolC/ΔyacG; settings: Escherichia coli, BW25113
Procedure: as §2
The yacG deletion allele from the Keio collection was amplified by PCR (primers: […] and […]) and moved to BW25113 ΔtolC as described below. The E. coli strain BW25113 ΔtolC containing pKD46 [25] was used to inoculate SOB (Invitrogen)/0.2% w/v arabinose (Sigma Aldrich)/ampicillin (100 μg/mL) and grown overnight at 30°C. The overnight culture was then diluted 1/40 into 20 mL fresh SOB/0.2% w/v arabinose/ampicillin (100 μg/mL) and grown at 30°C while shaking for ~3 hrs until OD600 = 0.5. Cells were pelleted by centrifugation at 4000 rpm for 10 min, washed with 40 mL ice cold sterile, distilled H2O, then 3 x 1 mL ice cold 10% glycerol followed by centrifugation at 5000 g for 3 minutes. The pellet was resuspended in 100 μL of 10% glycerol (1/200 of starting culture). For transformation, 5 μL of gel purified PCR product was added to 50 μL cells, mixed, and immediately electroporated in a 0.2 cm gap cuvette at 2.5kV, 25 μF, 200 Ω (BioRad, Hercules, CA USA). Electroporated cells were recovered in 1 mL SOC (Invitrogen)/0.2% arabinose at 37°C for 2 hours with shaking. Cells in amounts of 50 and 950 μL were then plated on LB agar supplemented with kanamycin (25 μg/mL) and incubated overnight at 37°C. Correct gene replacements were verified by PCR.

E. coli CIP101 GyrA D87N = assay: microbe, parasite or virus in culture; settings: Escherichia coli
Procedure: as §2

E. coli BW25113 ΔtolC = assay: Broth microdilution MIC, E. coli BW25113 ΔtolC; settings: Escherichia coli
Excerpt: as §4, §2
The yacG deletion allele from the Keio collection was amplified by PCR (primers: […] and […]) and moved to BW25113 ΔtolC as described below. The E. coli strain BW25113 ΔtolC containing pKD46 [25] was used to inoculate SOB (Invitrogen)/0.2% w/v arabinose (Sigma Aldrich)/ampicillin (100 μg/mL) and grown overnight at 30°C. The overnight culture was then diluted 1/40 into 20 mL fresh SOB/0.2% w/v arabinose/ampicillin (100 μg/mL) and grown at 30°C while shaking for ~3 hrs until OD600 = 0.5. […]

[11] = tested on: E. coli MB2884 (clinical isolate); assay: Broth microdilution MIC, E. coli MB2884; settings: Escherichia coli; Table 1; MB2884 E. coli; read-out: MIC
Excerpt: as §1, §2

[12] = tested on: E. coli GYR103 GyrB L446Q; assay: microbe, parasite or virus in culture; settings: Escherichia coli
Excerpt: as §4, §2
After the agar solidified, 5 μL of a saturated bacterial culture, grown in CAMH broth, were dispensed on the agar surface and allowed to dry at room temperature. […] To select for resistance, a 100 mm petri dish was filled with 25 mL CAMH agar containing 8 μg/mL MRL-770 or 0.5 μg/mL MRL-423 (Fig 1). The cells in 1 mL of an overnight culture of E. coli HS151 (~10^9 CFU/mL) were concentrated by centrifugation and spread onto the surface of an MRL-770 or MRL-423 containing plate. After the surface dried at room temperature the plate was incubated at 37°C overnight. Any colonies that arose were counted and an approximate frequency of resistance was calculated after confirming resistance by restreaking on media containg compound as well as measuring MICs (see Results). Genomic DNA from the parent strain (E. coli HS151) and purified (restreaked) resistant isolates was obtained with a GeneJET genomic DNA purification kit according to the manufacturer’s instructions (Fisher Scientific). Assembled whole genome mutant sequences were then compared to the parent strain and polymorphisms were identified as described.

[13] = tested on: A. baumanii MB9797 (ATCC19606); assay: Broth microdilution MIC, A. baumannii MB9797; settings: Acinetobacter baumannii, Table 1, MB9797 A. baumanii, read-out: MIC
Excerpt: as §4, §2

S. aureus (MRSA) COL = assay: Broth microdilution MIC, S. aureus COL; settings: Staphylococcus aureus
Excerpt: as §4, §2

[14] = tested on: A. baumannii ΔlpxC MB9796; assay: Broth microdilution MIC, A. baumannii MB9796; settings: Acinetobacter baumannii
Excerpt: as §4, §2

[15] = tested on: K. pneumoniae CL15245 (clinical isolate); assay: Broth microdilution MIC, K. pneumoniae CL15245; settings: Klebsiella pneumoniae; Table 1; CL15245 K. pneumoniae; read-out: MIC
Excerpt: as §1, §2

[16] = Table 2, HS151, GyrB mutation none

SMILES	MIC [1] [µg/mL]	MIC (E. coli HS151 (ΔtolC); Table 1, HS151 E. coli ΔtolC) [µg/mL]	MIC (E. coli HS151 (ΔtolC); [16]) [µg/mL]	MIC [2] [µg/mL]	MIC [3] [µg/mL]	MIC [4] [µg/mL]	MIC [5] [µg/mL]	MIC [6] [µg/mL]	MIC [7] [µg/mL]	MIC [8] [µg/mL]	MIC [9] [µg/mL]	MIC (E. coli CIP101 GyrA D87N) [µg/mL]	MIC [11] [µg/mL]	MIC [12] [µg/mL]	MIC [13] [µg/mL]	MIC (S. aureus (MRSA) COL; MRSA) [µg/mL]	MIC [14] [µg/mL]	MIC [15] [µg/mL]	also measured
CO[C@@H]1[C@@H](OC(N)=O)[C@@H](O)[C@H](Oc2ccc3c(O)c(NC(=O)c4ccc(O)c(CC=C(C)C)c4)c(=O)oc3c2C)OC1(C)C [novobiocin]	64 (≈ 104 µM)	2 (≈ 3.26 µM)	2 (≈ 3.26 µM)	64 (≈ 104 µM)	1 (≈ 1.63 µM)	2 (≈ 3.26 µM)	2 (≈ 3.26 µM)	2 (≈ 3.26 µM)	2 (≈ 3.26 µM)	2 (≈ 3.26 µM)	2 (≈ 3.26 µM)	2 (≈ 3.26 µM)	> 64	2 (≈ 3.26 µM)	8 (≈ 13.1 µM)	0.125 (≈ 0.204 µM)	< 0.0625	> 64	MIC (E. coli HS151 (ΔtolC); Fig 4 legend, E. coli HS151): 2 µg/mL (≈ 3.26 µM); MIC (E. coli HS151 (ΔtolC); Table 3, HS151): 2 µg/mL (≈ 3.26 µM); MIC (E. coli HS151 (qnrVC)): 2 µg/mL (≈ 3.26 µM); MIC [10]: 2 µg/mL (≈ 3.26 µM); MIC (E. coli BW25113 ΔtolC): 2 µg/mL (≈ 3.26 µM)
CO[C@H]1/C=C/O[C@@]2(C)Oc3c(C)c(O)c4c(O)c(c(/C=N/N5CCN(C)CC5)c(O)c4c3C2=O)NC(=O)/C(C)=C\C=C\[C@H](C)[C@H](O)[C@@H](C)[C@@H](O)[C@@H](C)[C@H](OC(C)=O)[C@@H]1C [rifampicin]	32 (≈ 38.9 µM)	–	–	32 (≈ 38.9 µM)	–	–	–	–	–	–	–	8 (≈ 9.72 µM)	8 (≈ 9.72 µM)	–	2 (≈ 2.43 µM)	< 0.0625	< 0.0625	32 (≈ 38.9 µM)	–
CN(C)[C@@H]1C(O)=C(C(N)=O)C(=O)[C@@]2(O)C(O)=C3C(=O)c4c(O)cccc4[C@@](C)(O)[C@H]3C[C@@H]12 [tetracycline]	0.25 (≈ 0.563 µM)	0.5 (≈ 1.13 µM)	0.5 (≈ 1.13 µM)	32 (≈ 72 µM)	0.5 (≈ 1.13 µM)	0.5 (≈ 1.13 µM)	0.5 (≈ 1.13 µM)	0.5 (≈ 1.13 µM)	0.5 (≈ 1.13 µM)	0.5 (≈ 1.13 µM)	0.5 (≈ 1.13 µM)	0.5 (≈ 1.13 µM)	–	0.5 (≈ 1.13 µM)	2 (≈ 4.5 µM)	–	0.25 (≈ 0.563 µM)	2 (≈ 4.5 µM)	MIC (S. aureus (MRSA) COL; Table 1, COL S. aureus (MRSA), read-out: MIC): > 64 µg/mL
